Test results from PubChem BioAssay (NCI).
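Compound exposure: 48 hours, 5 concentrations, 96-well plates. At the GI50, growth is halved. The concentration for full growth arrest is given as TGI.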

Legend:
Test in all cases: NCI-60 cell line screen, 48 h
[1] = system: K-562 leukemia
[2] = system: MALME-3M melanoma
[3] = system: UACC-257 melanoma
[4] = system: LOX IMVI melanoma
[5] = system: HT29 colon
[6] = system: HL-60(TB) leukemia
[7] = system: SK-MEL-5 melanoma
[8] = system: SF-268 CNS
[9] = system: RXF 393 renal
[10] = system: EKVX NSCLC
[11] = system: SNB-19 CNS
[12] = system: SF-295 CNS
[13] = system: NCI-H226 lung
[14] = system: MDA-MB-231 breast
[15] = system: SNB-75 CNS
[16] = system: DU-145 prostate
[17] = system: SN12C renal
[18] = system: HOP-92 NSCLC
[19] = system: OVCAR-3 ovarian
[20] = system: NCI-H522 lung
[21] = system: IGROV1 ovarian
[22] = system: PC-3 prostate
[23] = system: SR leukemia
[24] = system: KM12 colon
[25] = system: TK-10 renal
[26] = system: ACHN renal
[27] = system: BT-549 breast
[28] = system: OVCAR-8 ovarian
[29] = system: MOLT-4 leukemia
[30] = system: HCT-15 colon
[31] = system: HOP-62 NSCLC
[32] = system: UO-31 renal
[33] = system: A498 renal
[34] = system: OVCAR-5 ovarian
[35] = system: T-47D breast
[36] = system: HCC-2998 colon
[37] = system: SK-OV-3 ovarian
[38] = system: RPMI-8226 leukemia
[39] = system: MCF7 breast
[40] = system: NCI/ADR-RES ovarian
[41] = system: 786-0 renal
[42] = system: MDA-MB-435
[43] = system: U251 CNS
[44] = system: SK-MEL-28 melanoma
[45] = system: CCRF-CEM leukemia
[46] = system: NCI-H460 lung
[47] = system: OVCAR-4 ovarian
[48] = system: A549 NSCLC
[49] = system: SK-MEL-2 melanoma
[50] = system: M14 melanoma
[51] = system: SF-539 CNS
[52] = system: UACC-62 melanoma
[53] = system: SW-620 colon
[54] = system: CAKI-1 renal
[55] = system: HS 578T breast
[56] = system: HCT-116 colon
[57] = system: COLO 205 colon

Q: For `CNC(=O)c1cc(-n2ccc3cc(NC(=O)Nc4ccc(N5CCOCC5)c(C(F)(F)F)c4)ccc32)ccn1`, which GI50 [1] is on record?
A: 1.24 µM

Q: And the TGI [1]?
A: > 33.3 µM

Q: And the GI50 [2]?
A: 3.89 µM

Q: What about the TGI [2] of the same compound?
A: > 33.3 µM

Q: And the GI50 [3]?
A: 8.89 µM

Q: What about the TGI [3] of the same compound?
A: > 33.3 µM

Q: And the GI50 [4]?
A: 0.251 µM

Q: And the TGI [4]?
A: > 33.3 µM

Q: And the GI50 [5]?
A: 2.01 µM

Q: What about the TGI [5] of the same compound?
A: > 33.3 µM

Q: And the GI50 [6]?
A: 1.62 µM

Q: And the TGI [6]?
A: > 33.3 µM

Q: What about the GI50 [7] of the same compound?
A: 1.32 µM

Q: And the TGI [7]?
A: 7.58 µM

Q: What about the GI50 [8] of the same compound?
A: 27.2 µM

Q: And the TGI [8]?
A: > 33.3 µM

Q: And the GI50 [9]?
A: 0.595 µM

Q: What about the TGI [9] of the same compound?
A: 1.62 µM

Q: And the GI50 [10]?
A: > 33.3 µM

Q: And the TGI [10]?
A: > 33.3 µM

Q: And the GI50 [11]?
A: 15 µM

Q: What about the TGI [11] of the same compound?
A: > 33.3 µM

Q: What about the GI50 [12] of the same compound?
A: 0.938 µM

Q: And the TGI [12]?
A: 3.24 µM

Q: And the GI50 [13]?
A: 3.69 µM

Q: And the TGI [13]?
A: > 33.3 µM

Q: What about the GI50 [14] of the same compound?
A: 17.9 µM

Q: What about the TGI [14] of the same compound?
A: > 33.3 µM

Q: And the GI50 [15]?
A: 6.38 µM

Q: What about the TGI [15] of the same compound?
A: > 33.3 µM

Q: What about the GI50 [16] of the same compound?
A: 10.4 µM

Q: And the TGI [16]?
A: > 33.3 µM

Q: What about the GI50 [17] of the same compound?
A: 9.21 µM

Q: What about the TGI [17] of the same compound?
A: > 33.3 µM

Q: And the GI50 [18]?
A: 2.11 µM

Q: And the TGI [18]?
A: > 33.3 µM

Q: What about the GI50 [19] of the same compound?
A: 6.48 µM

Q: What about the TGI [19] of the same compound?
A: > 33.3 µM

Q: And the GI50 [20]?
A: 2.9 µM

Q: And the TGI [20]?
A: > 33.3 µM

Q: What about the GI50 [21] of the same compound?
A: 3.87 µM

Q: What about the TGI [21] of the same compound?
A: > 33.3 µM

Q: And the GI50 [22]?
A: 1.31 µM

Q: And the TGI [22]?
A: > 33.3 µM

Q: What about the GI50 [23] of the same compound?
A: 1.88 µM

Q: And the TGI [23]?
A: > 33.3 µM

Q: And the GI50 [24]?
A: 0.159 µM

Q: What about the TGI [24] of the same compound?
A: > 33.3 µM

Q: And the GI50 [25]?
A: 27.6 µM

Q: And the TGI [25]?
A: > 33.3 µM

Q: And the GI50 [26]?
A: 5.69 µM

Q: And the TGI [26]?
A: > 33.3 µM

Q: And the GI50 [27]?
A: 1.27 µM

Q: And the TGI [27]?
A: 8.9 µM

Q: And the GI50 [28]?
A: 4.5 µM

Q: What about the TGI [28] of the same compound?
A: > 33.3 µM

Q: And the GI50 [29]?
A: 1.93 µM

Q: What about the TGI [29] of the same compound?
A: > 33.3 µM

Q: What about the GI50 [30] of the same compound?
A: 1.93 µM

Q: And the TGI [30]?
A: > 33.3 µM

Q: And the GI50 [31]?
A: 1.52 µM

Q: What about the TGI [31] of the same compound?
A: 14.6 µM

Q: What about the GI50 [32] of the same compound?
A: 3.55 µM

Q: What about the TGI [32] of the same compound?
A: > 33.3 µM

Q: And the GI50 [33]?
A: > 33.3 µM

Q: And the TGI [33]?
A: > 33.3 µM

Q: What about the GI50 [34] of the same compound?
A: 14.6 µM

Q: What about the TGI [34] of the same compound?
A: > 33.3 µM

Q: What about the GI50 [35] of the same compound?
A: 0.907 µM

Q: And the TGI [35]?
A: 15.5 µM

Q: And the GI50 [36]?
A: 11.5 µM

Q: What about the TGI [36] of the same compound?
A: > 33.3 µM

Q: What about the GI50 [37] of the same compound?
A: 26.7 µM

Q: And the TGI [37]?
A: > 33.3 µM

Q: What about the GI50 [38] of the same compound?
A: 1.04 µM

Q: What about the TGI [38] of the same compound?
A: 3.11 µM

Q: What about the GI50 [39] of the same compound?
A: 1.7 µM

Q: And the TGI [39]?
A: > 33.3 µM

Q: And the GI50 [40]?
A: 7.51 µM

Q: What about the TGI [40] of the same compound?
A: > 33.3 µM

Q: What about the GI50 [41] of the same compound?
A: 2.89 µM

Q: And the TGI [41]?
A: > 33.3 µM

Q: And the GI50 [42]?
A: 5.73 µM

Q: And the TGI [42]?
A: > 33.3 µM

Q: What about the GI50 [43] of the same compound?
A: 3.23 µM

Q: And the TGI [43]?
A: > 33.3 µM

Q: And the GI50 [44]?
A: 11.7 µM

Q: What about the TGI [44] of the same compound?
A: > 33.3 µM

Q: And the GI50 [45]?
A: 1.53 µM

Q: What about the TGI [45] of the same compound?
A: > 33.3 µM

Q: And the GI50 [46]?
A: 4.39 µM

Q: What about the TGI [46] of the same compound?
A: > 33.3 µM

Q: And the GI50 [47]?
A: 7.76 µM

Q: And the TGI [47]?
A: > 33.3 µM

Q: And the GI50 [48]?
A: 5.15 µM

Q: What about the TGI [48] of the same compound?
A: > 33.3 µM

Q: And the GI50 [49]?
A: 11.3 µM

Q: What about the TGI [49] of the same compound?
A: > 33.3 µM

Q: And the GI50 [50]?
A: 3.11 µM

Q: What about the TGI [50] of the same compound?
A: > 33.3 µM

Q: And the GI50 [51]?
A: 1.41 µM

Q: And the TGI [51]?
A: > 33.3 µM

Q: And the GI50 [52]?
A: 1.27 µM

Q: And the TGI [52]?
A: 14.7 µM

Q: What about the GI50 [53] of the same compound?
A: 8.36 µM

Q: And the TGI [53]?
A: > 33.3 µM

Q: And the GI50 [54]?
A: 10 µM

Q: What about the TGI [54] of the same compound?
A: > 33.3 µM

Q: And the GI50 [55]?
A: 1.85 µM

Q: What about the TGI [55] of the same compound?
A: > 33.3 µM

Q: And the GI50 [56]?
A: 2.09 µM

Q: And the TGI [56]?
A: > 33.3 µM

Q: What about the GI50 [57] of the same compound?
A: 2.09 µM

Q: And the TGI [57]?
A: > 33.3 µM
